The values that follow come from patent US7087424B1, “Method of controlling fungal pathogens, and agents useful for same” (priority 1999, dated 2006).

For data set [1] the following is noted: cited from earlier work.
The subject of another data set is take-all fungus. Kind of data set: agar overlay / PDA plate bioassay against take-all fungus. The settings on record: for inhibition zone against take-all fungus: FIG. 6B, 12.5 mg purified sugar acid, agar overlay bioassay; for zone of inhibition at 7500 µg/disc / zone of inhibition at 12500 µg/disc / zone of inhibition at 25000 µg/disc: Gaeumannomyces graminis, read-out: Clearance zone radii; for zone of inhibition at 7500 µg/disc: amount 7.5 mg; for zone of inhibition at 12500 µg/disc: amount 12.5 mg; for zone of inhibition at 25000 µg/disc: amount 25.0 mg; for bioactivity against take-all: purified acids, PDA plate bioassay, FIG. 6A/6B; for protection against take-all: summary of Table 2. The format is cell-based, G. graminis var tritici. From the text:
A modification of the agar plug assay (Poplawsky et al., 1988) was used to assay for bioactivity of extracts of Pseudomonas strain AN5, or derivative strains thereof, against take-all fungus, wherein an agar overlay assay was used to test activity of specific fractions. This assay involves macerating the take-all fungus grown in Potato Dextrose (PD) broth and seeding it to a Potato Dextrose Agar (PDA) overlay. This PDA overlay was poured onto thick PDA plates. Fractions to be tested for activity were spotted on top of the overlay, and the plates were dried and incubated at 16° C. for 3–5 days.
Active fractions were identified by the appearance of a clearance zone in the plates, within an opaque background of cultured fungus.

Data set [2] can be described thus: media pH with purified acids (Table 2). It is filed as physicochemical.
For data set [3] the following is noted: cited from earlier work. The source holds these as a separate data set.
Data set [4] has as its system Botrytis fabae (Chocolate Spot Fungus). Kind of data set: in vitro bioassays against B. fabae. It is filed as cell-based. The text has this: Accordingly, it is within the scope of the present invention to produce transgenic faba bean plants which produce sugar acids, using the methods described herein, to enhance tolerance of faba beans to B. fabae.

Read-outs that look alike come from different tables or passages of the source.

Regarding `O=C(O)c1cccc2nc3ccccc3nc12` [PCA, Phenazine-1-carboxylic acid], the solubility entry in data set [1] (in chloroform and methylene chloride) is given as “highly soluble”; in data set [1] (in water, methanol and ethyl acetate) it was “insoluble”.

Consider `O=C1O[C@H]([C@@H](O)CO)C(O)=C1O` [Ascorbic acid, ascorbic acid], for which, in the data set with take-all fungus, the “inhibition zone against take-all fungus” value was “strong inhibition zones”, the zone of inhibition at 7500 µg/disc was determined as 0 mm, the zone of inhibition at 12500 µg/disc is 9 mm and the zone of inhibition at 25000 µg/disc was found to be 20 mm. Also, the bioactivity against take-all result in the data set with take-all fungus was “possessed activity”. In data set [2] (amount 25.0 mg), the “media pH” value is 1.9.

As for `O=C(O)CCCC(=O)O` [Glutaric acid, glutaric acid], in the data set on take-all fungus, the “inhibition zone against take-all fungus” value is recorded as “strong inhibition zones”, the zone of inhibition at 7500 µg/disc is 15 mm, the zone of inhibition at 12500 µg/disc was 20 mm and the zone of inhibition at 25000 µg/disc is 25 mm. For the same compound, the bioactivity against take-all entry with take-all fungus was “possessed activity”. The “media pH” value in data set [2] (amount 25.0 mg) is on record as 2.0. Further, the pKa (commonly the negative logarithm of the acid dissociation constant) in data set [3] is reported as 4.31.

As for `CC(=O)O` [Acetic acid, reference compound], in data set [2] (amount 4.2 to 8.4 mg), the “media pH” value was determined as 2.4.

Take `O=C(O)[C@H](O)[C@@H](O)[C@H](O)[C@H](O)CO` [Gluconic acid, gluconic acid]: the “suppression of growth of B. fabae” value in data set [4] was “suppress the growth and/or reproduction”. The “relation of amount used to size of inhibition zone” value with take-all fungus (FIG. 6A, 25, 15, 12.5, 7.5 mg pure gluconic acid) was “positive correlation”. Moreover, in the data set on take-all fungus, the zone of inhibition at 7500 µg/disc worked out at 7 mm, the zone of inhibition at 12500 µg/disc amounted to 10 mm, the zone of inhibition at 25000 µg/disc was 20 mm and the bioactivity against take-all entry is listed as “strong biologically activity”. Further, the protection against take-all entry in the data set on take-all fungus is “confers protection”. In addition, in data set [2] (amount 25.0 mg), the “media pH” value is reported as “about 5.0”.

As to `O=C[C@H](O)[C@@H](O)[C@@H](O)[C@H](O)C(=O)O` [Galacturonic acid, galacturonic acid], in the data set with take-all fungus, the “biological activity against take-all relative to gluconic acid” value is given as “not as strong as gluconic acid”, the zone of inhibition at 7500 µg/disc came out at 7 mm, the zone of inhibition at 12500 µg/disc turned out to be 20 mm and the zone of inhibition at 25000 µg/disc amounted to 25 mm. In addition, in data set [2] (amount 25.0 mg), the “media pH” value was 1.7.

In the case of `O=C(O)CC(O)C(=O)O` (stereo not shown) [Malic acid, malic acid], in the data set on take-all fungus, the “inhibition zone against take-all fungus” value is reported as “strong inhibition zones”, the zone of inhibition at 7500 µg/disc was found to be 10 mm, the zone of inhibition at 12500 µg/disc stood at 20 mm and the zone of inhibition at 25000 µg/disc came to 25 mm. For the same compound, the bioactivity against take-all result with take-all fungus is “possessed activity”. For the same compound, in data set [2] (amount 25.0 mg), the “media pH” value is 1.5.

Regarding `O=C[C@H](O)[C@@H](O)[C@H](O)[C@H](O)C(=O)O` [Glucuronic acid, glucuronic acid], in the data set with take-all fungus, the “inhibition zone against take-all fungus” value is given as “strong inhibition zones”, the zone of inhibition at 7500 µg/disc came out at 0 mm, the zone of inhibition at 12500 µg/disc came to 10 mm and the zone of inhibition at 25000 µg/disc amounted to 20 mm. The bioactivity against take-all entry in the data set with take-all fungus is “possessed activity”. For the same compound, the “media pH” value in data set [2] (amount 25.0 mg) is reported as 1.7.

For the compound `O=C([O-])[C@H](O)[C@@H](O)[C@H](O)[C@H](O)CO.[Na+]` [Sodium gluconate, reference compound], in the data set on take-all fungus, the zone of inhibition at 7500 µg/disc came out at 0 mm, the zone of inhibition at 12500 µg/disc came to 0 mm, the zone of inhibition at 25000 µg/disc was 0 mm and the protection against take-all result is recorded as “did not confer significant protection”. For the same compound, the “media pH” value in data set [2] (amount 25.0 mg) is listed as “about 7.0”.
